This is an account of results in the supplement of paper PMC10627819.

Holding throughout (experiment): Bliss interaction score (quartile over a dose matrix) (fitness difference); higher = more antagonism (negative = synergy)
Assay [1] concerns B. subtilis 168. The essentials:
(§1)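 Quartiles summarise the Bliss score over technical, biological and donor/recipient replicates, where the score is observed minus expected fitness under a product model. Expected fitness uses single-drug values inferred from combination data. Fitness is OD595 at entry into stationary phase over the plate's robust no-drug mean, capped at 1.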

In assay [2] the test system is S. aureus DSM 20231. A digest of the protocol: as §1
In assay [3] the test system is S. aureus Newman. A digest of the protocol: as §1
Assay [4] concerns S. pneumoniae D39V. The essentials: as §1
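Note: first quartile when negative (synergy) and third quartile when positive (antagonism).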

With `CC(=O)OC[C@H]1O[C@@H]([S-])[C@H](OC(C)=O)[C@@H](OC(C)=O)[C@@H]1OC(C)=O.CCP(CC)CC.[Au+]` [Auranofin] + O=C(O[C@@H]1Cc2c(O)cc(O)cc2O[C@@H]1c1cc(O)c(O)c(O)c1)c1cc(O)c(O)c(O)c1 [EGCG], the Bliss interaction score in assay [1] was 0.0518; in assay [2] it was -0.0255; in assay [3], -0.0511; in assay [4] it was 0.08.
As for `CC(=O)OC[C@H]1O[C@@H]([S-])[C@H](OC(C)=O)[C@@H](OC(C)=O)[C@@H]1OC(C)=O.CCP(CC)CC.[Au+]` [Auranofin] + Oc1cc(Cl)ccc1Oc1ccc(Cl)cc1Cl [Triclosan], the Bliss interaction score in assay [1] was -0.0277; in assay [2], -0.0223; in assay [3], -0.0211; in assay [4] it was 0.106.
The like results for `O=C(N[C@H](CO)[C@H](O)c1ccc([N+](=O)[O-])cc1)C(Cl)Cl` [Chloramphenicol] + CC1(C)S[C@@H]2[C@H](NC(=O)Cc3ccccc3)C(=O)N2[C@H]1C(=O)O [PenicillinG] were, in that order, 0.0719, 0.0631, -0.0428 and -0.0461.
For `O=C(N[C@H](CO)[C@H](O)c1ccc([N+](=O)[O-])cc1)C(Cl)Cl` [Chloramphenicol] + CC(=O)O[C@H]1C[C@@]2(C)[C@@H](C[C@@H](O)[C@H]3[C@@]4(C)CC[C@@H](O)[C@@H](C)[C@@H]4CC[C@@]32C)/C1=C(\CCC=C(C)C)C(=O)O [Fusidic acid], in that order: 0.074, 0.0319, -0.0559 and -0.103.
In the case of `O=C(N[C@H](CO)[C@H](O)c1ccc([N+](=O)[O-])cc1)C(Cl)Cl` [Chloramphenicol] + CCC(C)C1C(=O)NC(=C)C(=O)NC(C(=O)NC(CSCC(C(=O)N1)NC(=O)/C(=C/C)/NC(=O)C(C(C)CC)N)C(=O)NC2C(SCC(NC(=O)CNC(=O)C3CCCN3C2=O)C(=O)NC(CCCCN)C(=O)NC4C(SCC(NC(=O)CNC(=O)C(NC(=O)C(NC(=O)C(NC(=O)CNC4=O)C)CC(C)C)CCSC)C(=O)NC(CC(=O)N)C(=O)NC(CCSC)C(=O)NC(CCCCN)C(=O)NC5C(SCC6C(=O)NC(C(=O)NC(CSC(C(C(=O)N6)NC(=O)C(NC5=O)C)C)C(=O)NC(CO)C(=O)NC(C(C)CC)C(=O)NC(CC7=CN=CN7)C(=O)NC(C(C)C)C(=O)NC(=C)C(=O)NC(CCCCN)C(=O)O)CC8=CN=CN8)C)C)C)CC(C)C [Nisin], the Bliss interaction score is 0.0397 in assay [1] (main component drawn), -0.0704 in assay [2] (main component drawn), 0.0543 in assay [3] (main component drawn) and -0.102 in assay [4] (main component drawn).
For the molecule `O=C(N[C@H](CO)[C@H](O)c1ccc([N+](=O)[O-])cc1)C(Cl)Cl` [Chloramphenicol] + CC[C@H]1OC(=O)[C@H](C)C(=O)[C@H](C)[C@@H](O[C@@H]2O[C@H](C)C[C@H](N(C)C)[C@H]2O)[C@](C)(OC)C[C@@H](C)C(=O)[C@H](C)[C@H]2N(CCCCn3cnc(-c4cccnc4)c3)C(=O)O[C@]12C [Telithromycin], the Bliss interaction score in assay [1] was -0.0575; in assay [2], -0.104; in assay [3] it was -0.0946; in assay [4], -0.0437.
The like results for `O=C(N[C@H](CO)[C@H](O)c1ccc([N+](=O)[O-])cc1)C(Cl)Cl` [Chloramphenicol] + CC[C@H]1OC(=O)[C@H](C)[C@@H](O[C@H]2C[C@@](C)(OC)[C@@H](O)[C@H](C)O2)[C@H](C)[C@@H](O[C@@H]2O[C@H](C)C[C@H](N(C)C)[C@H]2O)[C@](C)(O)C[C@@H](C)C(=O)[C@H](C)[C@@H](O)[C@]1(C)O [Erythromycin] were, in that order, 0.0488, 0.0318, -0.103 and 0.0269.
In the case of `O=C(N[C@H](CO)[C@H](O)c1ccc([N+](=O)[O-])cc1)C(Cl)Cl` [Chloramphenicol] + CC[C@H]1OC(=O)[C@H](C)[C@@H](O[C@H]2C[C@@](C)(OC)[C@@H](O)[C@H](C)O2)[C@H](C)[C@@H](O[C@@H]2O[C@H](C)C[C@H](N(C)C)[C@H]2O)[C@](C)(OC)C[C@@H](C)C(=O)[C@H](C)[C@@H](O)[C@]1(C)O [Clarithromycin], the Bliss interaction score in assay [1] was -0.0459; in assay [2] it was -0.158; in assay [3], -0.129; in assay [4], 0.0359.
Consider `O=C(N[C@H](CO)[C@H](O)c1ccc([N+](=O)[O-])cc1)C(Cl)Cl` [Chloramphenicol] + CN(C)[C@@H]1C(O)=C(C(N)=O)C(=O)[C@@]2(O)C(O)=C3C(=O)c4c(O)ccc(Cl)c4[C@@](C)(O)[C@H]3C[C@@H]12 [Clortetracycline], for which the Bliss interaction score in assay [1] is -0.117; in assay [2], 0.0518; in assay [3], -0.0412; in assay [4] it was -0.0404.
For the molecule `O=C(N[C@H](CO)[C@H](O)c1ccc([N+](=O)[O-])cc1)C(Cl)Cl` [Chloramphenicol] + CN[C@H](CC(C)C)C(=O)N[C@H]1C(=O)N[C@@H](CC(N)=O)C(=O)N[C@H]2C(=O)N[C@H]3C(=O)N[C@H](C(=O)N[C@H](C(=O)O)c4cc(O)cc(O)c4-c4cc3ccc4O)[C@H](O[C@H]3C[C@](C)(N)[C@@H](O)[C@H](C)O3)c3ccc(c(Cl)c3)Oc3cc2cc(c3O[C@@H]2O[C@H](CO)[C@@H](O)[C@H](O)[C@H]2O[C@H]2C[C@](C)(NCc3ccc(-c4ccc(Cl)cc4)cc3)[C@@H](O)[C@H](C)O2)Oc2ccc(cc2Cl)[C@H]1O [Oritavancin], the Bliss interaction score in assay [1] is 0.0647; in assay [2], 0.0571; in assay [3], -0.0346; in assay [4], 0.0499.
The like results for `O=C(N[C@H](CO)[C@H](O)c1ccc([N+](=O)[O-])cc1)C(Cl)Cl` [Chloramphenicol] + CO[C@@H]1[C@@H](OC(N)=O)[C@@H](O)[C@H](Oc2ccc3c(O)c(NC(=O)c4ccc(O)c(CC=C(C)C)c4)c(=O)oc3c2C)OC1(C)C [Novobiocin] were, in that order, 0.0928, 0.0712, 0.0758 and -0.111.
On to `O=C(N[C@H](CO)[C@H](O)c1ccc([N+](=O)[O-])cc1)C(Cl)Cl` [Chloramphenicol] + CO[C@@]12[C@H](COC(N)=O)C3=C(C(=O)C(C)=C(N)C3=O)N1C[C@@H]1N[C@@H]12 [MitomycinC], for which the Bliss interaction score was 0.114 in assay [1], -0.0503 in assay [2], 0.102 in assay [3] and -0.0831 in assay [4].
